Measured values from ChEMBL document CHEMBL2034850, “Radiosynthesis of a ¹⁸F-labeled 2,3-diarylsubstituted indole via McMurry coupling for functional characterization of cyclooxygenase-2 (COX-2) in vitro and in vivo” (Bioorg Med Chem, 2012).

How the values were obtained:
HT-29 [1] = experiment: Cellular uptake in human HT-29 spheroids of diameter 300+/-10 um assessed per mg of protein at 0.4 MBq after 4 hrs by gamma counting; format: ADME, cell-based; conditions: ht-29, 4 h
HT-29 [2] = experiment: Cellular uptake in human HT-29 spheroids of diameter 600+/-10 um assessed per mg of protein at 0.4 MBq after 4 hrs by gamma counting; format: ADME, cell-based; conditions: ht-29, 4 h
HT-29 [3] = conditions: human, ht-29, 4 h
Description: Cellular uptake in human HT-29 monolayers assessed per mg of protein at 0.4 MBq after 4 hrs by gamma counting

For `O=[N+]([O-])c1nccn1CC(O)C[18F]` (stereo not drawn) [[18F]FLUOROMISONIDAZOLE], the Drug uptake (HT-29 [1]) was 1.17 %ID, the Drug uptake (HT-29 [2]) was 9.86 %ID and the Drug uptake (HT-29 [3]) was 1.03 %ID.
